Columns and labels:
RAW264.7 cells = test: Morphology and number of activated cells in LPS-induced RAW264.7 macrophage; type: cell-based; details: LPS 1 μg/ml + P7C3 1 μM
Protocol: FIGS. 3A-3E show morphology and number of activated cells in LPS-induced RAW264.7 macrophage in vitro. RAW264.7 cells were cultured in complete medium (FIG. 3A) or contained with P7C3 (FIG. 3B, 1 μM), LPS (FIG. 3C, 1 μg/ml), and LPS+P7C3 (FIG. 3D) for […]. The photo was taken under inverted microscopy (Rebel, ECHO) at 20× mag. The elongated and pseudopod shape of cells were considered as activated (yellow star), but the small and round shape of cells was considered as inactivated (yellow arrow). […] The statistical analysis was performed using two-way ANOVA with Tukey's multiple comparisons test in GraphPad Prism 8.4.3, and p≤0.05 was considered statistically significant.

db/db mice [1] = test: qPCR gene expression of gastrocnemius muscle and MyHC1 myofibre staining in db/db mice; type: in vivo
Protocol: Quantitative real-time PCR. Total RNA was isolated from GAS muscle using the Exiqon miRCURY RNA Isolation kit (Exiqon, Mass., USA) according to the manufacturer's protocol. Complimentary DNA from total RNA was synthesized with iScript cDNA synthesis kit (Bio-Rad Laboratories, CA, USA) and quantitative real-time PCR (qPCR) analysis was performed on key transcriptome targets using iTaq Universal SYBR Green Supermix (Bio-Rad Laboratories, CA, USA). The cDNA synthesis and qPCR procedures were performed as described previously. The mouse HPRT gene was used as an internal control.
Myofibre staining. The 10 μm thick transverse serial cryosections of TA muscles were cut at the mid-belly region using Microm cryostat ma-chine. Briefly, the tissue sections were blocked with 0.2% bovine serum albumin (BSA) and 10% normal sheep serum (NSS) in PBS-Triton X100 (PBST) for 1 h at RT. All washes were carried out with PBS. Following washing, the sections were incubated in 5 μg/mL of mouse monoclonal primary antibody against myosin heavy chain type-1 (A4.840s DSHB, IA, USA) in 0.2% BSA and 5% NSS antibody dilution buffer in PBST overnight at 4° C. After washing, the sections were then fixed with 10% neutral buffered formalin for 5 min at RT, washed and incubated in 1:300 dilution of biotinylated sheep anti-mouse IgG (ab6807, Abcam, Mass., USA) and 1:1000 dilution of rabbit anti-laminin (L9393, Sigma-Aldrich, MO, USA) in the antibody dilution buffer for 1 h at RT. Following washes, the tissue sections were then incubated in 1:400 dilution of streptavidin AF488 conjugate and goat anti-rabbit AF594 (Invitrogen, CA, USA) and then washed and mounted with Prolong gold anti-fade mounting medium with DAPI (Invitrogen, CA, USA). Images were obtained at ×10 and ×20 magnifications with the Olympus IX73 inverted microscope using CellSens Standard software (Olympus Soft Imaging Solution, USA) and the MyHC1 positive myofibres were quantified with ImageJ software.

Nampt = molecular target: T1, Nampt (Mus musculus, UniProt Q99KQ4); test: Cardiac Nampt enzymatic activity in db/db mice; type: in vivo; details: 10 mg/kg body weight/day, i.p., four-week, vs vehicle
T1 construct: from tissue; host or cells: whole heart homogenate of db/db mice
Source text: Nampt enzymatic activity.

db/db mice [2] = test: Echocardiography, body and heart weight in db/db mice; type: in vivo; details: 10 mg/kg/day i.p., four-weeks
Protocol: Echocardiography. Serial […] echocardiography was conducted under 2-3% isoflurane/oxygen anesthesia using a Visualsonic Vevo 770 system equipped with 30 MHz linear signal transducer (Toronto, Ontario, Canada). The mice were depilated as required for imaging and before placing on a 37° C. heated platform. Echo measurements were taken from at least three different cardiac cycles for each mouse. M-mode imaging from short-axis of the left ventricle (LV), using the papillary muscles for reference, was used to obtain measurements. Fractional shortening (FS %) and ejection fraction (EF %) were calculated as previously described.

Sirt1 = Sirt1 deacetylase activity in db/db heart lysates; type: in vivo, mice; details: vs vehicle controls
Protocol: Sirt1 deacetylase activity. Sirt1 deacetylase activity was measured in the whole heart lysates from the vehicle and P7C3 treated db/db mice according to the manufacturer's protocol using a deacetylase fluorometric assay kit (Sigma-Aldrich, MO, USA). The fluorescence intensity was measured at 440 nm (excitation, 340 nm).

db/db hearts = test: Ex vivo ischemia reperfusion (Langendorff) in db/db hearts; set-up: species or system mice
Protocol: Ex vivo ischemia reperfusion protocol. Mice were injected with heparin (360 USP units, Sigma-Aldrich, MO, USA) and euthanized with Somnasol™ (pentobarbital, 50 mg/kg i.p. body weight). Hearts were then excised and mounted on to the Langendorff apparatus immediately and perfused with Krebs-Hanseleit buffer containing (in mM): 119 NaCl, 25 NaHCO3, 4 KCl, 1 MgCl2, 1.8 CaCl2), 1 MgCl2, 10 glucose and 2 Sodium pyruvate, pH 7.4, that was constantly bubbled with carbogen gas and maintained at 37° C. as described previously. Perfusion was maintained at a constant flow of ˜2.2 ml/min. Hearts were stabilized for 30 min before proceeding to the ischemic phase. Hearts that underwent P7C3 (3 μM) treatment during the Langendorff procedure were allowed to stabilize for 10 mins then a 20 min perfusion with P7C3 (3 μM) (within Krebs-Hanseleit buffer) as pre-ischemic dosing. Cardiac ischemia was induced by the pause in Krebs-Hanseleit buffer perfusion for 45 min. Reperfusion was induced with the induction of Krebs-Hanseleit buffer at a constant flow of ˜2.2 ml/min for 2 hours. […] Image J software was utilized to quantify the ischemic areas for several sections per heart, which were then averaged and divided by the total area of the heart section and multiplied by a factor of ×100(%) to determine the overall damage percentage per heart. […]

[3] = gastrocnemius muscle, vs db-Veh
[4] = gastrocnemius muscle, vs db-Veh and C57Bl/6J
[5] = gastrocnemius muscle, vs db-Veh and WT

T1 sequence (Q99KQ4 whole entry): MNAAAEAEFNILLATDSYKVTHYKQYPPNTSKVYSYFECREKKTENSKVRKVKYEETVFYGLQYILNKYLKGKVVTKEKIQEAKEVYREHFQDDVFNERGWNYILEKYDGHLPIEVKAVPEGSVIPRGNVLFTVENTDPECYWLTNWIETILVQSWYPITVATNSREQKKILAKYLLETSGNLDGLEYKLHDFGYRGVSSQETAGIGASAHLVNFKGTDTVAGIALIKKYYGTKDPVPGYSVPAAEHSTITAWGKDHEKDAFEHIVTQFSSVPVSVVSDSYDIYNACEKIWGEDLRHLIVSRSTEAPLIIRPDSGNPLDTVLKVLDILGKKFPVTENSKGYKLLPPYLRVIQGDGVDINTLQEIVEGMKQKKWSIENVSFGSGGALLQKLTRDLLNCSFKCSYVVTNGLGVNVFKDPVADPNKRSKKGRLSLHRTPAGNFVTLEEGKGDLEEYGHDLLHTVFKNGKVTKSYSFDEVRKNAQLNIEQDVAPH

SMILES: OC(CNc1ccccc1)Cn1c2ccc(Br)cc2c2cc(Br)ccc21 (stereo not shown) [P7C3, 3,6-Dibromo-a-[(phenylamino)methyl]-9H-carbazole-9-ethanol]
- number of activated RAW264.7 cells (RAW264.7 cells; vs LPS): significantly decreased
- non-activated RAW264.7 cells (RAW264.7 cells; vs LPS group): significantly higher
- TNFα expression in skeletal muscle (db/db mice [1]; gastrocnemius muscle, db-Veh vs db-P7C3): high levels in db-Veh compared with db-P7C3
- CD36 expression (db/db mice [1]; [3]): significantly down-regulated
- Fabp1 expression (db/db mice [1]; [3]): significantly down-regulated
- Fgf21 expression (db/db mice [1]; [3]): significant reduction
- MyHC type 1 (MyHC1) expression levels (db/db mice [1]; [3]): significant de-crease
- Cpt1 expression (db/db mice [1]; [4]): significantly up-regulated
- Pdk4 expression (db/db mice [1]; [4]): significantly up-regulated
- MyHC-2a expression levels (db/db mice [1]; [5]): no significant change
- MyHC-2b expression levels (db/db mice [1]; [5]): no significant change
- MyHC-2× expression levels (db/db mice [1]; [5]): no significant change
- number of MyHC1 positive myofibres (db/db mice [1]; tibialis anterior immunostaining, vs db-Veh): significant decrease
- cardiac Nampt activity (Nampt): significantly increased
- ejection fraction (EF %) (db/db mice [2]): significantly increased
- fractional shortening (FS %) (db/db mice [2]): significantly increased
- SiRT1 activity in cardiac tissue (Sirt1): significant increase
- cardiac effluent Troponin I levels (db/db hearts; 30 and 120 minutes post-ischemia): significant decrease
- infarct size (db/db hearts; P7C3 3 μM prior to and following (2 hour reperfusion) ischemia): 18%

From patent US20220370636A1, “NICOTINAMIDE ADENINE DINUCLEOTIDE ACTIVATOR AND USE THEREOF” (University of South Florida, priority 2021, published 2022)
